Measurements from patent US11109593B2, “Isoxazolin-5-one derivative and herbicide containing same as active ingredient” (HOKKO CHEMICAL INDUSTRY CO., LTD., priority 2017, dated 2021).

How the values were obtained:
Format in all cases: in vivo
Echinochloa crus-galli [1] = assay: Test Example 1: herbicidal effect test by treatment of rice paddy soil (immediately after seeding); settings: 120 g/10a active ingredient, dry weight vs untreated area, 14 days after treatment
Method in brief: (§1)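 Flooded paddy pot test in a glass greenhouse: emulsion diluted in water, dropped at 120 g a.i. per 10 ares just after sowing, water depth kept about 3 cm. Dry-weight reduction relative to untreated plants is scored at 14 days.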

Scirpus juncoides [2] = assay: as above; settings: 120 g/10a active ingredient, dry weight vs untreated area, 14 days after treatment
Method in brief: as §1

[3] = test system: broad leaf weeds (Lindernia pyxidaria and Monochoria vaginalis); assay: as above; settings: 120 g/10a active ingredient, dry weight vs untreated area, 14 days after treatment
Method in brief: as §1

Echinochloa crus-galli [4] = assay: Test Example 2: herbicidal effect test by treatment during growing period in paddy rice cultivation (seven days after seeding); settings: 120 g/10a active ingredient, assessed 14 days after treatment, dry weight vs untreated area
Method in brief: (§2)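 Seeds sown 0–1 cm deep in puddled, fertilised paddy soil with about 3 cm standing water in a glass greenhouse. Diluted emulsion dropped into the water seven days after seeding at 120 g active ingredient per 10 ares. Herbicidal rate (%) from mean dry weight vs untreated, duplicate, 14 days after treatment.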

Scirpus juncoides [5] = assay: as above; settings: 120 g/10a active ingredient, assessed 14 days after treatment, dry weight vs untreated area
Method in brief: as §2

[6] = test system: broad leaf weeds (Lindernia pyxidaria and Monochoria vaginalis); assay: as above; settings: 120 g/10a active ingredient, assessed 14 days after treatment, dry weight vs untreated area
Method in brief: as §2

Amaranthus viridis [7] = assay: Test Example 3: herbicidal effect test by treatment of dry field farming soil (one day after seeding); settings: 120 g/10a active ingredient, evaluated 14 days after treatment
Method in brief: (§3)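 Alluvial dry-field soil in pots, top 1 cm mixed with 20 seeds per weed species. One day after seeding, the water-diluted emulsion was sprayed onto the soil surface at 100 L per 10 ares (120 g active ingredient per 10 ares). Duplicate pots; herbicidal rate (%) from plant dry weight versus untreated, 14 days after treatment.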

Chenopodium album [8] = assay: as above; settings: 120 g/10a active ingredient, evaluated 14 days after treatment
Method in brief: as §3

Echinochloa crus-galli [9] = assay: as above; settings: 120 g/10a active ingredient, evaluated 14 days after treatment
Method in brief: as §3

southern crabgrass [10] = assay: as above; settings: 120 g/10a active ingredient, evaluated 14 days after treatment
Method in brief: as §3

Amaranthus viridis [11] = assay: Test Example 4: herbicidal effect test by treatment of leave and stem in dry field farming (seven days after seeding); settings: 120 g/10a active ingredient; emulsion sprayed seven days after seeding; evaluated 14 days after treatment
Experimental: (§4) This test was conducted in a double system per one agent solution concentration area, and the herbicidal rates (%) were determined by the following equation (Math. 1) on 14 days after the treatment with the agents. Herbicidal Rate (%)={1-(Average Dry Weight (g) of Plant of Treated Area)/(Average Dry Weight (g) of Plant of Untreated Area)}×100 [Math. 1]
(§5) Herbicidal Effect Test by Treatment of Leave and Stem in Dry Field Farming
(§6) Pots with a size of 36 cm^2 were filled with a dry field farming soil (alluvium). The soil of the top layer of 1 cm and seeds of weeds, namely southern crabgrass, Echinochloa crus-galli, Chenopodium album and Amaranthus viridis, 20 seeds each, were evenly mixed, and the top layer was gently pressed. Emulsions prepared using the compounds in Table 6 below according to Formulation Example 5 were diluted with water seven days after seeding, and the water-diluted agent solutions were sprayed to the soil surfaces at a ratio of 100 liters per 10 ares. The converted amount of the applied active ingredient corresponded to 120 g per 10 ares. The herbicidal effects were evaluated by the same standard as that in Test Example 1 on 14 days after the treatment with the agents. […] The compound numbers in Table 6 are the same as those in Table 1 and Table 2 above.

Chenopodium album [12] = assay: as above; settings: 120 g/10a active ingredient; emulsion sprayed seven days after seeding; evaluated 14 days after treatment
Experimental: as §4, §5, §6

Echinochloa crus-galli [13] = assay: as above; settings: 120 g/10a active ingredient; emulsion sprayed seven days after seeding; evaluated 14 days after treatment
Experimental: as §4, §5, §6

southern crabgrass [14] = assay: as above; settings: 120 g/10a active ingredient; emulsion sprayed seven days after seeding; evaluated 14 days after treatment
Experimental: as §4, §5, §6

Structure (SMILES) | Herbicidal rate (%) Echinochloa crus-galli (Echinochloa crus-galli [1]) [%] | Herbicidal rate (%) Scirpus juncoides (Scirpus juncoides [2]) [%] | Herbicidal rate (%) Lindernia pyxidaria [3] [%] | Herbicidal rate (%) Monochoria vaginalis [3] [%] | Herbicidal rate (%) Echinochloa crus-galli (Echinochloa crus-galli [4]) [%] | Herbicidal rate (%) Scirpus juncoides (Scirpus juncoides [5]) [%] | Herbicidal rate (%) Lindernia pyxidaria [6] [%] | Herbicidal rate (%) Monochoria vaginalis [6] [%] | herbicidal rate, Amaranthus viridis (Amaranthus viridis [7]) [%] | herbicidal rate, Chenopodium album (Chenopodium album [8]) [%] | herbicidal rate, Echinochloa crus-galli (Echinochloa crus-galli [9]) [%] | herbicidal rate, southern crabgrass (southern crabgrass [10]) [%] | herbicidal effect (herbicidal rate), Amaranthus viridis (Amaranthus viridis [11]) [%] | herbicidal effect (herbicidal rate), Chenopodium album (Chenopodium album [12]) [%] | herbicidal effect (herbicidal rate), Echinochloa crus-galli (Echinochloa crus-galli [13]) [%] | herbicidal effect (herbicidal rate), southern crabgrass (southern crabgrass [14]) [%]
CCC(CC)n1oc(=O)c(Cc2ccccc2N(C(C)=O)S(=O)(=O)C(F)(F)F)c1C [Compound 1-295] | 90 | 90 | 90 | 90 | 90 | 90 | 90 | 90 | 90 | 90 | 90 | 90 | 40 | 40 | 90 | 90
CCC(C)n1oc(=O)c(Cc2ccccc2N(C(=O)CC(C)C)S(=O)(=O)C(F)(F)F)c1C (centres unmarked) [Compound 1-352] | 90 | 90 | 90 | 90 | 90 | 90 | 90 | 90 | 90 | 90 | 90 | 90 | 40 | 40 | 90 | 90
CCC(C)n1oc(=O)c(Cc2ccccc2N(C(C)=O)S(=O)(=O)C(F)(F)F)c1C (centres unmarked) [Compound 1-294] | 90 | 90 | 90 | 90 | 90 | 90 | 90 | 90 | 90 | 90 | 90 | 90 | 40 | 40 | 90 | 90
CCCCC(c1ccccc1)n1oc(=O)c(Cc2ccccc2N(S(=O)(=O)C(F)(F)F)S(=O)(=O)C(F)(F)F)c1C (centres unmarked) [Compound 1-1041] | 100 | 90 | 90 | 90 | 90 | 70 | 70 | 70 | 50 | 50 | 70 | 80 | 60 | 40 | 40 | 50
Cc1c(Cc2ccccc2N(S(C)(=O)=O)S(=O)(=O)C(F)(F)F)c(=O)on1C(C)c1ccccc1 (centres unmarked) [Compound 1-907] | 90 | 90 | 90 | 90 | 90 | 90 | 90 | 90 | 90 | 90 | 90 | 90 | 40 | 40 | 90 | 90
CC(C)Cn1oc(=O)c(Cc2ccccc2NS(=O)(=O)C(F)(F)F)c1C(F)(F)F [Compound 1-81] | 90 | 90 | 80 | 80 | 80 | 90 | 60 | 80 | – | – | – | – | 0 | 0 | 90 | 80
Cc1c(Cc2ccccc2NS(=O)(=O)C(F)(F)F)c(=O)on1CCCl [Compound 1-133] | 80 | 100 | 100 | 100 | 60 | 80 | 60 | 80 | – | – | – | – | 0 | 40 | 90 | 40
CCCCCC(c1ccccc1)n1oc(=O)c(Cc2ccccc2N(S(=O)(=O)C(F)(F)F)S(=O)(=O)C(F)(F)F)c1C (centres unmarked) [Compound 1-1042] | 90 | 90 | 90 | 80 | 60 | 70 | 60 | 60 | – | – | – | – | 40 | 40 | 0 | 50
CSCCn1oc(=O)c(Cc2ccccc2N(S(=O)(=O)C(F)(F)F)S(=O)(=O)C(F)(F)F)c1C [Compound 1-1002] | 100 | 100 | 100 | 100 | 90 | 80 | 60 | 80 | – | – | – | – | 50 | 70 | 90 | 60
Cc1c(Cc2ccccc2N(S(=O)(=O)C(F)(F)F)S(=O)(=O)C(F)(F)F)c(=O)on1CCCl [Compound 1-983] | 70 | 90 | 90 | 90 | 40 | 80 | 80 | 80 | – | – | – | – | 40 | 0 | 60 | 40
